Data published in PMC10221320.
Positions of bridges follow the written chain, without caps; N, C: chain ends. No end group written: not given here.

Experiments:
rat ASIC1a (rASIC1a) = test: Two-electrode voltage clamp, rASIC1a in Xenopus laevis oocytes; assay type: cell-based; details: 1 μM; pH drop from 7.4 to 5.5; −50 mV; n = 5; recombinant peptide
rat ASIC3 (rASIC3) [1] = test: Two-electrode voltage clamp, rASIC3 in Xenopus laevis oocytes; assay type: cell-based; details: 1 μM; pH drop from 7.4 to 5.5; −50 mV; n = 5; recombinant peptide
CD-1 mice [2] = test: Elevated plus maze test; assay type: in vivo, mouse; details: for N (h-d), number of hanging-down reactions / N (racks), vertical activity / N (sap), number of stretch-attend postures / N. entries, closed arms / N. entries, open arms / S (act), distance traveled during activity / S, distance traveled / T (act), activity time / T (e.c.z.), time of exit from the central zone / T (pass), passivity time / V, average travel speed / V(act), average movement speed during activity / N. entries, central area / T., time spent in closed arms / T., time spent in central area / T., time spent in open arms: mean ± SD
Experimental: (§1) The animal studies were performed under the European Commission’s legislation (Directives 86/609/EEC, 2010/63/EU), the National Standard of the Russian Federation “Good Laboratory Practice” (GOST P 53434-2009, Moscow, Russia), and Committee on Ethics of Laboratory Animal Handling № 05/21, 20 September 2021 and 08/21, 30 December 2021 protocols (PIBOC FEB RAS). Adult female CD-1 mice weighing 25 ± 2 g were subjected to a 12 h light–dark cycle at room temperature and with ad libitum access to food and water. There were seven or eight individuals in each group.
The anti-anxiety activity of the peptides was studied using the elevated plus maze (OpenScience, Krasnogorsk, Russia) test, a cruciform arena raised 50 cm above the floor, where the central platform and two arms are open and lightened, and two arms are closed with walls. Three groups of animals were treated with peptides at doses of 0.01, 0.1 and 1 mg/kg (intravenously) 30 min before testing. The control group was injected with an identical volume (50 µL) of sterile saline. Animals were placed in the center of the lightened arena and the recording lasted 5 min. Using the software “Minotaur” (LLC “Neurobiotics”, Zelenograd, Russia), 12 parameters were estimated: time (T) of activity(act); passivity (pass); spent in closed, open arms, and on the central area; exit from the central zone (e.c.z.); average travel speed (V, m/s); average movement speed during activity (V(act)); distance traveled (S, m); distance traveled during activity (S (act)); a number (N) of entries into open, closed arms, and exits to the central area (entries); vertical activity (racks); and stretch–attend posture when the animal stretches to its full length mainly using the forepaws (sap).

CD-1 mice [3] = test: Acetic-acid-induced writhings (acid-induced muscle pain model); assay type: in vivo, mouse
Experimental: as §1
Three groups of animals were treated with peptides at doses of 0.01, 0.1 and 1 mg/kg (intravenously) 15 min before an injection of 300 μL of a 0.7% acetic acid solution. The control animal group received an identical volume of saline. The positive control group received intravenously a dose 1 mg/kg of diclofenac (Hemofarm A.D., Vršac, Serbia), a commercial drug of the NSAID group. Fifteen minutes immediately after acid administration, the number of writhings and the writhing time (time in a spasmodic state) were counted.

CD-1 mice [4] = test: Complete Freund's adjuvant-induced acute inflammation; assay type: in vivo, mouse
Experimental: as §1
Three groups of animals were treated with peptides at doses of 0.01, 0.1 and 1 mg/kg (intravenously) 30 min before the induction of inflammation. The control animal group received an identical volume of saline. The positive control group received diclofenac (Hemofarm A.D., Vršac, Serbia) at a dose of 1 mg/kg. The edema was induced by a 20 µL injection of complete Freund’s adjuvant (CFA) (MP Biomedicals, Irvine, CA, USA) in the hind paw pad. The resulting edema was measured at 1, 2, 4, 24 and 48 h using a plethysmometer (Ugo Basile, Gemonio (VA), Italy). The anti-inflammatory threshold was estimated as a decrease in the paw volume and volume growth index (%), calculated using the formula: Volume Growth Index (%) = [(VCFA − Vi)/Vi] × 100, (1), where VCFA is the volume of the paw after the introduction of CFA and Vi is the volume of the paw before the introduction of CFA.

rat ASIC3 (rASIC3) [5] = details: ref [41]; read-out: EC50, potentiation of rASIC3 current; cited from earlier work
[6] = 0.01 mg/kg i.v. 30 min before testing, n = 7–8
[7] = 0.1 mg/kg i.v. 30 min before testing, n = 7–8
[8] = 1 mg/kg i.v. 30 min before testing, n = 7–8
[9] = i.v. 15 min before 0.7% acetic acid

GTPCDCYGYTGVYWFMLSRCPSGYGYNLSCHYFMGICCVKR (disulfide 4-37, 6-30, 20-38 (inferred)) [Hmg 1b-4]
inhibition of rASIC1a currents (rat ASIC1a (rASIC1a)): 45% | potentiation of rASIC3 currents (rat ASIC3 (rASIC3) [1]): 29% | N (h-d), number of hanging-down reactions (CD-1 mice [2]; [6]): 19 ± 6.6 | N (racks), vertical activity (CD-1 mice [2]; [6]): 34 ± 14.3 | N (sap), number of stretch-attend postures (CD-1 mice [2]; [6]): 15 ± 2.3 | N. entries, closed arms (CD-1 mice [2]; [6]): 18 ± 4.8 | N. entries, open arms (CD-1 mice [2]; [6]): 15 ± 3.3 | S (act), distance traveled during activity (CD-1 mice [2]; [6]): 42.6 ± 8.0 m | S, distance traveled (CD-1 mice [2]; [6]): 44.3 ± 8.3 m | T (act), activity time (CD-1 mice [2]; [6]): 161.7 ± 10.6 s | T (e.c.z.), time of exit from the central zone (CD-1 mice [2]; [6]): 3 ± 1.5 s | T (pass), passivity time (CD-1 mice [2]; [6]): 137.7 ± 11.2 s | V, average travel speed (CD-1 mice [2]; [6]): 0.15 ± 0.03 m/s | V(act), average movement speed during activity (CD-1 mice [2]; 0.01 mg/kg i.v. 30 min before testing, n = 7–8 (SD on later line: Hmg 1b-2 0.02, Hmg 1b-4 0.02)): 0.26 m/s | N. entries, central area (CD-1 mice [2]; 0.01 mg/kg i.v. 30 min before testing, n = 7–8 (SD on later line: Hmg 1b-2 11.3)): 36±9.4 | T., time spent in closed arms (CD-1 mice [2]; 0.01 mg/kg i.v. 30 min before testing, n = 7–8 (SD on later line: Hmg 1b-2 35.7, Hmg 1b-4 18.7)): 180.1 s | N (h-d), number of hanging-down reactions (CD-1 mice [2]; [7]): 20 ± 8.3 | N (racks), vertical activity (CD-1 mice [2]; [7]): 41 ± 4.8 | N (sap), number of stretch-attend postures (CD-1 mice [2]; [7]): 17 ± 3.6 | N. entries, central area (CD-1 mice [2]; [7]): 38 ± 8.4 | N. entries, closed arms (CD-1 mice [2]; [7]): 20 ± 6.6 | N. entries, open arms (CD-1 mice [2]; [7]): 22 ± 3.5 | S (act), distance traveled during activity (CD-1 mice [2]; [7]): 45.1 ± 6.1 m | S, distance traveled (CD-1 mice [2]; [7]): 46.8 ± 6.1 m | T (act), activity time (CD-1 mice [2]; [7]): 170.8 ± 16.1 s | T (e.c.z.), time of exit from the central zone (CD-1 mice [2]; [7]): 8 ± 3.6 s | T., time spent in central area (CD-1 mice [2]; [7]): 78.7 ± 15.3 s | T., time spent in closed arms (CD-1 mice [2]; [7]): 169 ± 30.2 s | T., time spent in open arms (CD-1 mice [2]; [7]): 84.3 ± 28.7 s | V, average travel speed (CD-1 mice [2]; [7]): 0.14 ± 0.02 m/s | V(act), average movement speed during activity (CD-1 mice [2]; 0.1 mg/kg i.v. 30 min before testing, n = 7–8 (SD on later line: Hmg 1b-2 0.01, Hmg 1b-4 0.03)): 0.27 m/s | T (pass), passivity time (CD-1 mice [2]; 0.1 mg/kg i.v. 30 min before testing, n = 7–8 (SD on later line: Hmg 1b-2 19.8)): 128 ± 15.7 s | N (h-d), number of hanging-down reactions (CD-1 mice [2]; [8]): 18 ± 5.2 | N (racks), vertical activity (CD-1 mice [2]; [8]): 45 ± 8.4 | N (sap), number of stretch-attend postures (CD-1 mice [2]; [8]): 14 ± 1.8 | N. entries, central area (CD-1 mice [2]; [8]): 29 ± 3.4 | N. entries, closed arms (CD-1 mice [2]; [8]): 19 ± 3.3 | N. entries, open arms (CD-1 mice [2]; [8]): 20 ± 2.5 | S (act), distance traveled during activity (CD-1 mice [2]; [8]): 41.0 ± 7.5 m | S, distance traveled (CD-1 mice [2]; [8]): 43.1 ± 7.1 m | T (act), activity time (CD-1 mice [2]; [8]): 174 ± 17.9 s | T (e.c.z.), time of exit from the central zone (CD-1 mice [2]; [8]): 8 ± 6.5 s | T., time spent in central area (CD-1 mice [2]; [8]): 73.8 ± 14.6 s | T., time spent in open arms (CD-1 mice [2]; [8]): 89.6 ± 18.5 s | V, average travel speed (CD-1 mice [2]; [8]): 0.14 ± 0.03 m/s | V(act), average movement speed during activity (CD-1 mice [2]; 1 mg/kg i.v. 30 min before testing, n = 7–8 (SD on later line: Hmg 1b-2 0.02, Hmg 1b-4 0.04)): 0.25 m/s | T (pass), passivity time (CD-1 mice [2]; 1 mg/kg i.v. 30 min before testing, n = 7–8 (SD on later line: Hmg 1b-2 21.9, Hmg 1b-4 17.7)): 125.7 s | T., time spent in closed arms (CD-1 mice [2]; 1 mg/kg i.v. 30 min before testing, n = 7–8 (SD on later line: Hmg 1b-2 32.7, Hmg 1b-4 17.2)): 160.2 s | activity and immobility time, travelled distance and mean speed (CD-1 mice [2]; i.v.): approximately the same in all groups | anxiolytic effect (CD-1 mice [2]; i.v.): exhibit an anxiolytic effect | number of hangings from open sleeves (CD-1 mice [2]; i.v.): increase in the number of hangings from open sleeves | rears number (CD-1 mice [2]; i.v.): increase | close area (closed arms) preference, share of time (CD-1 mice [2]; i.v., control group 63%): 50% | difference in analgesic activity between the two peptides (CD-1 mice [3]; i.v.): no significant difference in analgesic activity between each other | reduction in duration of writhings vs control (CD-1 mice [3]; [9]): more than 2.5 times | reduction in number of writhings vs control (CD-1 mice [3]; [9]): 1.5 times | decrease in paw volume and growth index of edema (CD-1 mice [4]; 1 mg/kg i.v.): more than 1.5 times | anti-inflammatory effect (CD-1 mice [4]; 0.01, 0.1 and 1 mg/kg i.v. 30 min before CFA): demonstrated an anti-inflammatory effect at all tested doses | paw edema volume decrease compared with diclofenac (CD-1 mice [4]; 1 and 0.1 mg/kg i.v., diclofenac 1 mg/kg i.v.): greater than the decreases caused by diclofenac | anti-inflammatory effectiveness vs other APETx-like / sea anemone peptides (CD-1 mice [4]; comparison with APETx2 and Ugr 9-1 data of ref [34]): significantly superior not only to Hmg 1b-2, but also to APETx2 and Ugr 9-1 | EC50 (rat ASIC3 (rASIC3) [5]): 1530 ± 70 nM
